Experimental findings from patent publication US20250145635A1, “COMPOUND CONTAINING BIS(AZANYLYLIDENE) SULFONYL STRUCTURE AND USE THEREOF IN MEDICINE” (SCINNOHUB PHARMACEUTICAL CO., LTD., priority 2021, published 2025) are described below.

For experiment [1], the target named is recombinant human PKR enzyme (Homo sapiens (Human), UniProt P30613). Put plainly: Pyruvate kinase (PKR) activity experiment. Type of experiment: biochemical. The settings on record: activation of recombinant human PKR enzyme. The procedure:
• 1). A recombinant human PKR enzyme solution was formulated at a concentration of 60 ng/well (a 20 μL reaction system), and 5 μL of the solution was added into each well of a black transparent bottom 384-well plate. • 2). Compound solutions were formulated at different concentrations, with the final concentrations of 1000/300/100 nM (containing 1% DMSO). Each 5 μL of the compound solution was added into the plate in item 3.1 and mixed well. The plate was incubated at room temperature for 10 min. • 3). A reaction system was formulated according to the instructions of a kit (as shown in the table below), and 10 μL of the reaction system was added into each well of the 384-well plate, and mixed uniformly with the solution in item 3.2.
• 4). The 384-well plate was placed on a microplate reader to detect the fluorescence value at 540/590 nm, where the value was read every 2 minutes and the detection was conducted continuously for 1 hour. • 5). The Slope value within the detection time was calculated, and the 0.1% DMSO well was used as a control well to calculate a compound activation rate.
[formula] • 6). Fitting dose-effect curve
With the log value of the compound concentration as the X axis and the percentage activation rate as the Y axis, a dose-effect curve was fitted with the log(agonist) vs. response-variable slope of the analysis software GraphPad Prism 5, and the AC50 value of the activity of each compound against PKR was obtained.

The target in experiment [2] is USP9X (Homo sapiens (Human), UniProt Q93008). Put plainly: USP9X enzyme activity experiment. Particulars: inhibition of USP9X enzyme, Ub-Rho 110 substrate. Type of experiment: biochemical. On the procedure:
• 1). A 1× analysis buffer was formulated, consisting of a modified Tris buffer (pH 7.5). • 2). Compound solutions of different concentrations were formulated with final concentrations of 3,000/1,000/300/100/30/10/3/1 nM (containing 1% DMSO), and added into a 384-well plate. • 3). A USP9X enzyme solution was formulated with the 1× analysis buffer. • 4). 10 μL of the USP9X enzyme solution was added into the 384-well plate, and incubated with the compounds at room temperature for 1 h. • 5). Rhodamine 110 Protein was added into the 1× analysis buffer to formulate a substrate working solution. • 6). 10 μL of the substrate solution was added into each reaction well, centrifuged for 30 s, and mixed uniformly for 30 s. • 7). The 384-well plate was placed on a microplate reader for detection, with an excitation wavelength of 480 nm and an emission wavelength of 540 nm. Test was conducted for 30 minutes and the data was collected. • 8. Fitting the dose-effect curve.
With the log value of the compound concentration as the X axis and the percentage inhibition rate as the Y axis, a dose-effect curve was fitted with the log(inhibitor) vs. response-variable slope of the analysis software GraphPad Prism 5, and the IC50 value of the activity of each compound against USP9X was obtained.

recombinant human PKR enzyme, sequence (P30613 whole entry): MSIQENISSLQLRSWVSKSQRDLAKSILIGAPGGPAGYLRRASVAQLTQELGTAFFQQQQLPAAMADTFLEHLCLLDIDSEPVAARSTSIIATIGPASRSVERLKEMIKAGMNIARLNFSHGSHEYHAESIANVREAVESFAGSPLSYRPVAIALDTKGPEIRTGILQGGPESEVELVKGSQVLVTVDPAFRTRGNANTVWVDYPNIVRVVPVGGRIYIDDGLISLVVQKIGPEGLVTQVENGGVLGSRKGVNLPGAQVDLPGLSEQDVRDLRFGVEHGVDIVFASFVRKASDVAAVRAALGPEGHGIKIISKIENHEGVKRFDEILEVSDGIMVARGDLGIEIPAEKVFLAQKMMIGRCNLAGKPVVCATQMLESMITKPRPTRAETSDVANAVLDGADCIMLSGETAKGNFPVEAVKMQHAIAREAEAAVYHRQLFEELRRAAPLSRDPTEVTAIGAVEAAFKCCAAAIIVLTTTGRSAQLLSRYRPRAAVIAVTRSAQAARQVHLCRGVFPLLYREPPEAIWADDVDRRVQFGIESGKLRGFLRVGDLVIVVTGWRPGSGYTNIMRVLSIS
USP9X, sequence (Q93008 whole entry): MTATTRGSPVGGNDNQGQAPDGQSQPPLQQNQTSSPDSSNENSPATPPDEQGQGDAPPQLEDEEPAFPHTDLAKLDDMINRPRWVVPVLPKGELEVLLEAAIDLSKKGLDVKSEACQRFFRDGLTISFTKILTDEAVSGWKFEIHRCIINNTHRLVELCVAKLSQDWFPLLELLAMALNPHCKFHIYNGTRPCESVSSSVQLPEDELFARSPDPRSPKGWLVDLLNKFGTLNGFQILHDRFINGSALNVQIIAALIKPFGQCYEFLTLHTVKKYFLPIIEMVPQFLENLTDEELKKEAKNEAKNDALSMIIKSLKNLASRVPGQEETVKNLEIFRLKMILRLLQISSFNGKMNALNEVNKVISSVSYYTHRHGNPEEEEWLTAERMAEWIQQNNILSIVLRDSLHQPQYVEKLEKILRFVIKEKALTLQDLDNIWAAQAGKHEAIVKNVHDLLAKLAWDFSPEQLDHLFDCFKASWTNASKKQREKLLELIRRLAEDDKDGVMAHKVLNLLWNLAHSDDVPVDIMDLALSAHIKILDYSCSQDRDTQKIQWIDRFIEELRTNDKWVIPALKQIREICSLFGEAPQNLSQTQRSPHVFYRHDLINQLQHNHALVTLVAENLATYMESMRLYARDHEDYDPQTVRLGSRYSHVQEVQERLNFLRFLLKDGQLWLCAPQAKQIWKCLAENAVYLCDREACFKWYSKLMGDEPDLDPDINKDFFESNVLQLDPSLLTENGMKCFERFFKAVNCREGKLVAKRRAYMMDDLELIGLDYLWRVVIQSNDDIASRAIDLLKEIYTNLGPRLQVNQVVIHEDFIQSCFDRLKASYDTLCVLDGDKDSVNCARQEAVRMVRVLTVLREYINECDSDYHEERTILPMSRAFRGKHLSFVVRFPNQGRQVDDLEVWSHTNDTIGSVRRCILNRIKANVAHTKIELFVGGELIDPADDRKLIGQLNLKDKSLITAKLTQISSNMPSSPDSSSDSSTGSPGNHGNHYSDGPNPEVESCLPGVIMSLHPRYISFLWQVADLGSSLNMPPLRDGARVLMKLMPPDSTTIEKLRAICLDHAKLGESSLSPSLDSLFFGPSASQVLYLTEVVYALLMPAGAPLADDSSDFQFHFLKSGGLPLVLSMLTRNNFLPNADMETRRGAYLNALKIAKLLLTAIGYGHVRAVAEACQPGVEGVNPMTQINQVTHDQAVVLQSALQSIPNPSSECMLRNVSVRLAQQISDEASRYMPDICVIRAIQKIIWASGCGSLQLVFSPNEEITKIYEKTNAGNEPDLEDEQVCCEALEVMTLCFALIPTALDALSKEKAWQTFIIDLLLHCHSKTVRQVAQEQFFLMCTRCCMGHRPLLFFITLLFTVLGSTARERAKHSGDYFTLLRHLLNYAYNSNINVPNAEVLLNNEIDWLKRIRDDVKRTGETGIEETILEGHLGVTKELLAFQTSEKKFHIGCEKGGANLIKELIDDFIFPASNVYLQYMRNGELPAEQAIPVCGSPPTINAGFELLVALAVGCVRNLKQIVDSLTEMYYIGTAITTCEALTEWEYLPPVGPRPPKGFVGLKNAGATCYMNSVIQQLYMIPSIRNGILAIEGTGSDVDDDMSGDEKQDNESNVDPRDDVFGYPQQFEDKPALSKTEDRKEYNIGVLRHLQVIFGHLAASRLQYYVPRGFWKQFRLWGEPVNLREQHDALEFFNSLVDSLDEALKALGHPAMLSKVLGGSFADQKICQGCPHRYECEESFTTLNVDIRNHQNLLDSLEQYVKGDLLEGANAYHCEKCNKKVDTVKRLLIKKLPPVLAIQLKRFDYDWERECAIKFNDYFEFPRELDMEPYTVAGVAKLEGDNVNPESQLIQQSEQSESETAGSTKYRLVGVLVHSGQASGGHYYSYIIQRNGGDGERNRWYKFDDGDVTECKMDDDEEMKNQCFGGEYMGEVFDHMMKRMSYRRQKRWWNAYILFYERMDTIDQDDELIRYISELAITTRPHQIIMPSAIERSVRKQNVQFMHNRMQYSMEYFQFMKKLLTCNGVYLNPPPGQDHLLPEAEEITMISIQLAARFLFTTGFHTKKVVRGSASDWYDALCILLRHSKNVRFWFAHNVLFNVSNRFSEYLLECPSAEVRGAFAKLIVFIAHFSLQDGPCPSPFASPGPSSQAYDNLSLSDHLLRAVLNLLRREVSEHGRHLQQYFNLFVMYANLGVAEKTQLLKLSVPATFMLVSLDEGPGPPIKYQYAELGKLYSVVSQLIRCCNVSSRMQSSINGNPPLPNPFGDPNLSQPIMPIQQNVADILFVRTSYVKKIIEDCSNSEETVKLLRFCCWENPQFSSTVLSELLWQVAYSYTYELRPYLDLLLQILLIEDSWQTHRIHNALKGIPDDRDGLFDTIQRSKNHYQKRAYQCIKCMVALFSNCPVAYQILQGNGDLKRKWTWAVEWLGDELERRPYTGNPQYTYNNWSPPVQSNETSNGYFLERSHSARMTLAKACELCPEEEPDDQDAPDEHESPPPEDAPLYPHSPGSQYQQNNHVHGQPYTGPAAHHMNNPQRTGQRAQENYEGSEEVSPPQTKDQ

As usually defined, the AC50 is the concentration at which the activity in the assay is half-maximal. The IC50 is the concentration needed to halve the response being measured. High values mean weaker potency, low ones greater potency. For the compound `O=C([C@H](CO)c1ccccc1)N1CC(=C2CN(S(=O)(=O)c3cnc4c(c3)OCCO4)C2)C1` [Compound 1, (S)-1-(1′-((2,3-dihydro-[1,4]dioxino[2,3-b]pyridin-7-yl)sulfonyl)-1′,4′-dihydro-2H,2′H-[3,3′-diazetidinylidene]-1(4H)-yl)-3-hydroxy-2-phenylpropan-1-one], in experiment [1], the concentration at half-maximal activity (AC50) was in the range of 300 to 1000 nM. This compound returned an IC50 in experiment [2] of under 100 nM.

For `O=C([C@H](CO)c1ccccc1)N1CC(=C2CN(S(=O)(=O)c3ccc4c(c3)OCCO4)C2)C1` [Compound 2, (S)-1-(1′-((2,3-dihydrobenzo[b][1,4]dioxin-6-yl)sulfonyl)-1′,4′-dihydro-2H,2′H-[3,3′-diazetidinylidene]-1(4H)-yl)-3-hydroxy-2-phenylpropan-1-one], in experiment [1], the AC50 is under 100 nM. Further, the IC50 in experiment [2] was under 100 nM.

Take `O=C([C@H](CO)c1ccccc1)N1CC(=C2CN(S(=O)(=O)c3ccc4ncsc4c3)C2)C1` [Compound 3, (S)-1-(1′-(benzo[d]thiazol-6-ylsulfonyl)-1′,4′-dihydro-2H,2′H-[3,3′-diazetidinylidene]-1(4H)-yl)-3-hydroxy-2-phenylpropan-1-one]: the AC50 in experiment [1] was under 100 nM. The compound further showed an IC50 in experiment [2] of 300 to 1000 nM.

With `O=C([C@H](CO)c1ccccc1)N1CC(=C2CN(S(=O)(=O)c3ccccn3)C2)C1` [Compound 4, (S)-3-hydroxy-2-phenyl-1-(1′-(pyridin-2-ylsulfonyl)-1′,4′-dihydro-2H,2′H-[3.3′-diazetidinylidene]-1(4H)-yl)propan-1-one], in experiment [1], the AC50 fell in the range of 101 to 300 nM. Also, the IC50 in experiment [2] was in the range of 101 to 300 nM.

Regarding `COc1ccc(S(=O)(=O)N2CC(=C3CN(C(=O)[C@H](CO)c4ccccc4)C3)C2)cc1` [Compound 5, (S)-3-hydroxy-1-(1′-((4-methoxyphenyl)sulfonyl)-1′,4′-dihydro-2H,2′H-[3,3′-diazetidinylidene]-1(4H)-yl)-2-phenylpropan-1-one], in experiment [1], the AC50 is under 100 nM. In addition, in experiment [2], the IC50 is under 100 nM.

For `O=C(C(CO)c1ccccc1)N1CC(=C2CN(S(=O)(=O)c3ccc(OC(F)F)cc3)C2)C1` (centres unmarked) [Compound 6, 1-(1′-((4-(difluoromethoxy)phenyl)sulfonyl)-1′,4′-dihydro-2H,2′H-[3,3′-diazetidinylidene]-1(4H)-yl)-3-hydroxy-2-phenylpropan-1-one], the half-inhibitory concentration (IC50) in experiment [2] was 101 to 300 nM.

On to `O=C([C@H](CO)c1ccccc1)N1CC(=C2CN(S(=O)(=O)c3ccc(OC4CC4)cn3)C2)C1` [Compound 82, (S)-1-(1′-((5-cyclopropoxypyridin-2-yl)sulfonyl)-1′,4′-dihydro-2H,2′H-[3,3′-diazetidinylidene]-1(4H)-yl)-3-hydroxy-2-phenylpropan-1-one], for which, in experiment [1], the AC50 was under 100 nM.

Turning to `O=C([C@H](CO)c1ccc(F)cc1F)N1CC(=C2CN(S(=O)(=O)c3ccccn3)C2)C1` [Compound 83, (S)-2-(2,4-difluorophenyl)-3-hydroxy-1-(1′-(pyridin-2-ylsulfonyl)-1′,4′-dihydro-2H,2′H-[3,3′-diazetidinylidene]-1(4H)-yl)propan-1-one], the AC50 in experiment [1] was under 100 nM.

In the case of `O=C([C@@H](CO)c1ccc(F)cc1F)N1CC(=C2CN(S(=O)(=O)c3ccccn3)C2)C1` [Compound 84, (R)-2-(2,4-difluorophenyl)-3-hydroxy-1-(1′-(pyridin-2-ylsulfonyl)-1′,4′-dihydro-2H,2′H-[3,3′-diazetidinylidene]-1(4H)-yl)propan-1-one], the AC50 in experiment [1] lay in the range of 300 to 1000 nM.

For the compound `N#Cc1ccc(C(CO)C(=O)N2CC(=C3CN(S(=O)(=O)c4ccccn4)C3)C2)cc1` (centres unmarked) [Compound 85, 4-(3-hydroxy-1-oxo-1-(1′-(pyridin-2-ylsulfonyl)-1′,4′-dihydro-2H,2′H-[3,3′-diazetidinylidene]-1(4H)-yl)propan-2-yl)benzonitrile], in experiment [1], the AC50 fell in the range of 300 to 1000 nM.

For the compound `O=C(C(CO)c1cc(F)cc(Cl)c1)N1CC(=C2CN(S(=O)(=O)c3ccccn3)C2)C1` (centres unmarked) [Compound 86, 2-(3-chloro-5-fluorophenyl)-3-hydroxy-1-(1′-(pyridin-2-ylsulfonyl)-1′,4′-dihydro-2H,2′H-[3,3′-diazetidinylidene]-1(4H)-yl)propan-1-one], the AC50 in experiment [1] is 300 to 1000 nM.

In the case of `COc1ccc(S(=O)(=O)N2CC(=C3CN(C(=O)[C@H](CO)c4ccc(F)cc4F)C3)C2)nc1` [Compound 87, (S)-2-(2,4-difluorophenyl)-3-hydroxy-1-(1′-((5-methoxypyridin-2-yl)sulfonyl)-1′,4′-dihydro-2H,2′H-[3,3′-diazetidinylidene]-1(4H)-yl)propan-1-one], in experiment [1], the AC50 was under 100 nM.

Turning to `COc1ccc(S(=O)(=O)N2CC(=C3CN(C(=O)[C@@H](CO)c4ccc(F)cc4F)C3)C2)nc1` [Compound 88, (R)-2-(2,4-difluorophenyl)-3-hydroxy-1-(1′-((5-methoxypyridin-2-yl)sulfonyl)-1′,4′-dihydro-2H,2′H-[3,3′-diazetidinylidene]-1(4H)-yl)propan-1-one], the AC50 in experiment [1] fell in the range of 300 to 1000 nM.

Regarding `O=C(C(CO)C1CCCCC1)N1CC(=C2CN(S(=O)(=O)c3ccccn3)C2)C1` (centres unmarked) [Compound 90, 2-cyclohexyl-3-hydroxy-1-(1′-(pyridin-2-ylsulfonyl)-1′,4′-dihydro-2H,2′H-[3,3′-diazetidinylidene]-1(4H)-yl)propan-1-one], the AC50 in experiment [1] lay within 101 to 300 nM.

With `[2H]C([2H])([2H])Oc1ccc(S(=O)(=O)N2CC(=C3CN(C(=O)[C@H](CO)c4ccccc4)C3)C2)nc1` [Compound 91, (S)-3-hydroxy-1-(1′-((5-(methoxy-d3)pyridin-2-yl)sulfonyl)-1′,4′-dihydro-2H,2′H-[3,3′-diazetidinylidene]-1(4H)-yl)-2-phenylpropan-1-one], the concentration at half-maximal activity (AC50) in experiment [1] was under 100 nM.
